How the values were obtained:
kochia = test: Test C pre-/postemergence herbicide test; assay type: in vivo, Kochia scoparia; conditions: preemergence
How it was run: (§1)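 Pre/post spray; non-phytotoxic solvent + surfactant. Post-timing 1–4 leaves, 2–18 cm. Read-out: visual % control vs untreated, day 12–14, greenhouse.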

redroot pigweed = test: Test A pre-/postemergence herbicide test; assay type: in vivo, Amaranthus retroflexus
How it was run: (§2)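 Greenhouse injury scoring (0–100, complete control = 100) at approximately ten days follows simultaneous pre- and postemergence application. Soil received a directed spray after seeding; seedlings of 2–10 cm at the one- to two-leaf stage were sprayed to runoff.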

Surinam grass = test: Test C pre-/postemergence herbicide test; assay type: in vivo, Urochloa decumbens; conditions: preemergence
How it was run: as §1

large crabgrass = test: Test A pre-/postemergence herbicide test; assay type: in vivo, Digitaria sanguinalis
How it was run: as §2

giant foxtail [1] = test: Test C pre-/postemergence herbicide test; assay type: in vivo, Setaria faberi; conditions: preemergence
How it was run: as §1

rice = test: Test C flooded paddy test; assay type: in vivo, Oryza sativa; conditions: for Plant response rating, Rice: 500 g ai/ha, visual rating after 12 to 14 days
How it was run: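 Postemergence sprays applied to plants 2 to 18 cm tall (1- to 4-leaf stage); paddy species grown to 2-leaf stage under flooding. After 12 to 14 days in greenhouse, visual rating versus untreated controls on 0–100 scale (0 no effect, 100 complete control).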

johnsongrass = test: Test C pre-/postemergence herbicide test; assay type: in vivo, Sorghum halepense; conditions: preemergence
How it was run: as §1

giant foxtail [2] = test: Test A pre-/postemergence herbicide test; assay type: in vivo, Setaria faberi
How it was run: as §2

yellow nutsedge = test: Test C pre-/postemergence herbicide test; assay type: in vivo, Cyperus esculentus; conditions: preemergence
How it was run: as §1

[3] = 125 g ai/ha, scale 0 (no effect) to 100 (complete control), visual, 12 to 14 days
[4] = 500 g ai/ha, scale 0 to 100 (0 no effect, 100 complete control), visual, 12 to 14 days
[5] = Postemergence, 500 g ai/ha, 0 to 100 scale, 0 no effect, 100 complete control
[6] = Postemergence, 2000 g ai/ha, 0 to 100 scale, 0 no effect, 100 complete control
[7] = Preemergence, 2000 g ai/ha, visual rating, 0 to 100 scale (0 no effect, 100 complete control)
[8] = preemergence, 500 g ai/ha, visual injury, 0 to 100 scale (0 no effect, 100 complete control)
[9] = 62 g ai/ha, scale 0 to 100 (0 no effect, 100 complete control)
[10] = 125 g ai/ha, scale 0 to 100 (0 no effect, 100 complete control)
[11] = 250 g ai/ha, scale of 0 to 100, 0 is no effect, 100 is complete control
[12] = scale 0 to 100 (0 no effect, 100 complete control)

SMILES | Plant response rating, Kochia (kochia; 62 g ai/ha, scale 0 to 100) | Plant response rating, Kochia (kochia; [3]) | Plant response rating, Kochia (kochia; 250 g ai/ha, scale 0-100) | Plant response rating, Kochia (kochia; [4]) | Pigweed plant response rating (redroot pigweed; [5]) | Plant response rating, Pigweed (redroot pigweed; [6]) | Pigweed plant response rating (redroot pigweed; [7]) | Pigweed plant response rating (redroot pigweed; [8]) | Plant response rating, Surinam Grass (Surinam grass; 62 g ai/ha, scale 0 to 100) | Plant response rating, Surinam Grass (Surinam grass; 250 g ai/ha, scale 0-100) | Plant response rating, Surinam Grass (Surinam grass; [4]) | Crabgrass, Large plant response rating (large crabgrass; [5]) | Plant response rating, Crabgrass, Large (large crabgrass; [6]) | Crabgrass, Large plant response rating (large crabgrass; [7]) | Crabgrass, Large plant response rating (large crabgrass; [8]) | Plant response rating, Foxtail, Giant (giant foxtail [1]; 62 g ai/ha, scale 0 to 100) | Plant response rating, Foxtail, Giant (giant foxtail [1]; [3]) | Plant response rating, Foxtail, Giant (giant foxtail [1]; 250 g ai/ha, scale 0-100) | Plant response rating, Foxtail, Giant (giant foxtail [1]; [4]) | Rice plant response rating (rice; [9]) | further results
CCNC(=O)c1cccc(NC(=O)c2sc(C(C)(C)C)nc2CC)c1 [Compound 210] | 0 | 90 | 90 | 95 | 60 | 80 | 100 | 100 | 0 | 10 | 50 | 40 | 65 | 100 | 90 | 0 | 10 | 10 | 60 | 35 | Plant response rating, Surinam Grass (Surinam grass; [3]): 5; Rice plant response rating (rice; [10]): 55; Rice plant response rating (rice; [11]): 75; Plant response rating, Rice (rice; [12]): 75; Plant response rating, Johnsongrass (johnsongrass; 62 g ai/ha, scale 0 to 100): 5; Plant response rating, Johnsongrass (johnsongrass; [3]): 20; Plant response rating, Johnsongrass (johnsongrass; 250 g ai/ha, scale 0-100): 50; Plant response rating, Johnsongrass (johnsongrass; [4]): 70; Foxtail, Giant plant response rating (giant foxtail [2]; [5]): 40; Plant response rating, Foxtail, Giant (giant foxtail [2]; [6]): 75; Foxtail, Giant plant response rating (giant foxtail [2]; [7]): 100; Foxtail, Giant plant response rating (giant foxtail [2]; [8]): 100; Plant response rating, Nutsedge, Yellow (yellow nutsedge; 62 g ai/ha, scale 0 to 100): 0; Plant response rating, Nutsedge, Yellow (yellow nutsedge; [3]): 0; Plant response rating, Nutsedge, Yellow (yellow nutsedge; 250 g ai/ha, scale 0-100): 5; Plant response rating, Nutsedge, Yellow (yellow nutsedge; [4]): 30
CCc1nn(C(C)(C)C)cc1C(=O)Nc1cc(C(=O)N(CC)CC)ccc1F [Compound 223] | 85 | 90 | 100 | 100 | 50 | 55 | 90 | 95 | 50 | 70 | 85 | 20 | 25 | 90 | 90 | 40 | 70 | 100 | 100 | 0 | Rice plant response rating (rice; [10]): 0; Rice plant response rating (rice; [11]): 45; Plant response rating, Rice (rice; [12]): 75; Plant response rating, Johnsongrass (johnsongrass; 62 g ai/ha, scale 0 to 100): 80; Plant response rating, Johnsongrass (johnsongrass; [3]): 80; Foxtail, Giant plant response rating (giant foxtail [2]; [5]): 10; Plant response rating, Foxtail, Giant (giant foxtail [2]; [6]): 10; Foxtail, Giant plant response rating (giant foxtail [2]; [7]): 90; Foxtail, Giant plant response rating (giant foxtail [2]; [8]): 75; Plant response rating, Nutsedge, Yellow (yellow nutsedge; 62 g ai/ha, scale 0 to 100): 0; Plant response rating, Nutsedge, Yellow (yellow nutsedge; [3]): 0; Plant response rating, Nutsedge, Yellow (yellow nutsedge; 250 g ai/ha, scale 0-100): 0; Plant response rating, Nutsedge, Yellow (yellow nutsedge; [4]): 0
